Test results reported in article PMC7024211, “Antifouling Napyradiomycins from Marine-Derived Actinomycetes Streptomyces aculeolatus” (Marine Drugs, 2020).

Experiments:
Daphnia magna [1] = conditions: experimental data ref Tisler and Zagorc-Koncan, 2003; cited from earlier work
Scenedesmus quadricauda = conditions: experimental data ref Tisler and Zagorc-Koncan, 2003; cited from earlier work
Orcorhynchus mykiss = conditions: experimental data ref Tisler and Zagorc-Koncan, 2003; cited from earlier work
Daphnia magna [2] = conditions: experimental data ref Tisler and Zagorc-Koncan, 2003; cited from earlier work; remark: listed apart in the source
Oral rat/rabit = conditions: ref Acros Organics safety data sheet; cited from earlier work
[3] = cited from earlier work
M. luteus [4] = test: Bacterial growth inhibition assay (OD600nm); format: cell-based, Micrococcus luteus; conditions: CuSO4 5 μM reference
Description: (§1) Five marine bacterial species were used as models to assess antimicrofouling activity. The biofilm-forming marine bacteria Marinobacter hydrocarbonoclasticus DSM 8798 (ATCC 49840), Cobetia marina DSM 4741, Phaeobacter inhibens DSM 17,395, and Pseusooceanicola batsensis DSM 15,984 were obtained from DSMZ (Leibniz Institute DSMZ—German collection of Microorganisms and Cell Cultures) and Micrococcus luteus. Cultures were routinely grown in liquid marine broth (Carl Roth GmbH, Karlsruhe, Germany) with agitation (180 rpm) or on agar-supplemented marine broth, at 28 °C (M. hydrocarbonoclasticus and C. marina) or 30 °C (P. inhibens and P. batsensis). M. luteus was maintained in Brain Heart Infusion broth (BHI, Becton Dickinson, GmbH, Heidelberg, Germany) with agitation (180 rpm) or on agar-supplemented BHI, at 37 °C.
(§2) The antibacterial activity of the napyradiomycins (1–12) was assessed in 96-well polystyrene flat bottom microplates (Nunclon Delta Surface, Thermo Scientific, Roskilde, Denmark) following previously reported procedures. […] After 24 h (M. hydrocarbonoclasticus, C. marina) or 48 h (P. batsensis, P. inhibens, M. luteus) incubation, the OD600nm was determined (Molecular Devices, Spectra Max 190). […] The percentage of growth inhibition was calculated as the amount of growth relative to that of the bacterial species without added compounds (with the same amount of DMSO added). CuSO4 (5 μM), a potent antifouling agent used in antifouling paints, was used as reference.
(§3) All assays were performed in triplicate, and results are representative of the average and standard error of the mean (SEM). Statistical analysis was performed in GraphPad Prism 8.0.2 (San Diego, CA, USA), using one-way ANOVA followed by a Dunnett’s multiple comparisons test against the control (species grown with the same amount of DMSO added).

C. marina [5] = test: Bacterial growth inhibition assay (OD600nm); format: cell-based, Cobetia marina; conditions: CuSO4 5 μM reference
Description: as §1, §2, §3

P. batsensis [6] = test: Bacterial growth inhibition assay (OD600nm); format: cell-based, Pseudooceanicola batsensis; conditions: CuSO4 5 μM reference
Experimental: (§4) As a first screening approach, liquid cultures of M. hydrocarbonoclasticus, and C. marina in a 96-well format were analyzed for bacterial growth inhibition by percent decrease in OD600 after incubation with napyradiomycins (1–12) at 31.25 µg/mL.
as §1
(§5) The antibacterial activity of the napyradiomycins (1–12) was assessed in 96-well polystyrene flat bottom microplates (Nunclon Delta Surface, Thermo Scientific, Roskilde, Denmark) following previously reported procedures. For initial screening, bacterial overnight cultures were diluted to an optical density (OD600nm) of 0.2 and incubated statically at 28 °C (M. hydrocarbonoclasticus, C. marina), 30 °C (P. inhibens, P. batsensis) or 37 °C (M. luteus) in a 96-well microplate in the presence or absence of 31.25 µg/mL of the napyradiomycins, solubilized in DMSO. After 24 h (M. hydrocarbonoclasticus, C. marina) or 48 h (P. batsensis, P. inhibens, M. luteus) incubation, the OD600nm was determined (Molecular Devices, Spectra Max 190). […] The percentage of growth inhibition was calculated as the amount of growth relative to that of the bacterial species without added compounds (with the same amount of DMSO added). CuSO4 (5 μM), a potent antifouling agent used in antifouling paints, was used as reference.
as §3

P. inhibens [7] = test: Bacterial growth inhibition assay (OD600nm); format: cell-based, Phaeobacter inhibens; conditions: CuSO4 5 μM reference
Experimental: as §4
Five marine bacterial species were used as models to assess antimicrofouling activity. The biofilm-forming marine bacteria Marinobacter hydrocarbonoclasticus DSM 8798 (ATCC 49840), Cobetia marina DSM 4741, Phaeobacter inhibens DSM 17,395, and Pseusooceanicola batsensis DSM 15,984 were obtained from DSMZ (Leibniz Institute DSMZ—German collection of Microorganisms and Cell Cultures) and Micrococcus luteus. […]
as §2, with “CuSO4 (5 μM), a potent antifouling agent used in antifouling paints, was used as reference.” left out

M. hydrocarbonoclasticus [8] = test: Bacterial growth inhibition assay (OD600nm); format: cell-based, Marinobacter hydrocarbonoclasticus; conditions: CuSO4 5 μM reference
Experimental: as §4, §1, §5, §3

M. hydrocarbonoclasticus [9] = test: Biofilm inhibition assay (crystal violet); format: cell-based, Marinobacter hydrocarbonoclasticus; conditions: CuSO4 5 μM reference
Experimental: (§6) In a 96-well plate, biofilm grown cultures of M. hydrocarbonoclasticus and C. marina were incubated with napyradiomycins (1–12) at a concentration of 31.25 µg/mL. After discarding the media, biofilm inhibition was determined from OD600 measurements of crystal violet stained cells resuspended from the plate bottom with acetic acid.
as §1
(§7) The antibiofilm activity of napyradiomycins (1–12) against the five marine bacterial species was assessed in 96-well polystyrene flat bottom microplates (Nunclon Delta Surface, Thermo Scientific, Roskilde, Denmark) as previously reported. For initial screening, bacterial overnight cultures were diluted to an optical density (OD600nm) value of 0.2 and incubated statically at 28 °C (M. hydrocarbonoclasticus, C. marina), 30 °C (P. inhibens, P. batsensis) or 37 °C (M. luteus) in the 96-well microplate in the presence or absence of 31.25 µg/mL of napyradiomycins, solubilized in DMSO. After 24 h (M. hydrocarbonoclasticus, C. marina) or 48 h (P. batsensis, P. inhibens, M. luteus) incubation, the OD600nm was determined. The planktonic cells and media were discarded, and the wells were washed twice with deionized water. The biofilm was fixed for 1 h at 60 °C and stained with crystal violet 0.06% for 10 min. The dye was discarded, and the wells were again washed twice with deionized water. The stained biofilm was solubilized with 30% acetic acid and the OD600nm was determined. […] The percentage of biofilm inhibition was calculated as the amount of biofilm relative to that of the bacterial species without added compounds (with the same amount of DMSO added). CuSO4 (5 μM), a potent antifouling agent used in antifouling paints, was used as reference.
as §3, with “8.0.2,” for “8.0.2 (San Diego, CA, USA),”

C. marina [10] = test: Biofilm inhibition assay (crystal violet); format: cell-based, Cobetia marina; conditions: CuSO4 5 μM reference
Experimental: as §6, §1, §7
as §3, with “8.0.2,” for “8.0.2 (San Diego, CA, USA),”

M. luteus [11] = test: Biofilm inhibition assay (crystal violet); format: cell-based, Micrococcus luteus; conditions: CuSO4 5 μM reference
Experimental: as §6, §1, §7
as §3, with “8.0.2,” for “8.0.2 (San Diego, CA, USA),”

P. batsensis [12] = test: Biofilm inhibition assay (crystal violet); format: cell-based, Pseudooceanicola batsensis; conditions: CuSO4 5 μM reference
Experimental: as §6, §1, §7
as §3, with “8.0.2,” for “8.0.2 (San Diego, CA, USA),”

P. inhibens [13] = test: Biofilm inhibition assay (crystal violet); format: cell-based, Phaeobacter inhibens; conditions: CuSO4 5 μM reference
Experimental: as §6, §1, §7
All assays were performed in triplicate, and results are representative of the average and standard error of the mean (SEM). […]

Compound	Aquatic toxicity Daphnia magna EC50 48 hour (Daphnia magna [1])	Aquatic toxicity Alga Scenedesmus quadricauda 72 hour IC50 (Scenedesmus quadricauda)	Aquatic toxicity Fish Orcorhynchus mykiss 96 hour LC50 (Orcorhynchus mykiss)	Chronic toxicity Daphnia magna 21 day NOEC (Daphnia magna [2])	Acute toxicity Oral rat/rabit LD50 (Oral rat/rabit)	ATE category [3]	growth inhibition M. luteus (M. luteus [4])	growth inhibition C. marina (C. marina [5])	% growth inhibition P. batsensis (P. batsensis [6])	% growth inhibition P. inhibens (P. inhibens [7])	% growth inhibition M. hydrocarbonoclasticus (M. hydrocarbonoclasticus [8])	biofilm inhibition M. hydrocarbonoclasticus (M. hydrocarbonoclasticus [9])	biofilm inhibition C. marina (C. marina [10])	biofilm inhibition M. luteus (M. luteus [11])	% biofilm inhibition P. batsensis (P. batsensis [12])	% biofilm inhibition P. inhibens (P. inhibens [13])
[As] [Arsenic]	2.5 µg/mL	34.7 µg/mL	15.3 µg/mL	1.85 mg/L	12 mg/kg	2 (category 2, 5 < ATE ≤ 50 mg/Kg)	–	–	–	–	–	–	–	–	–	–
[Cu] [Copper]	0.030 µg/mL	0.18 µg/mL	0.48 µg/mL	0.015 mg/L	140 mg/kg	3 (category 3, 50 < ATE ≤ 300 mg/Kg)	–	–	–	–	–	–	–	–	–	–
O=S(=O)([O-])[O-].[Cu+2] [CuSO4, reference compound]	–	–	–	–	–	–	not inhibited	not inhibited	44.8 ± 6.3%	66.2 ± 5.6%	35.8 ± 0.8%	not inhibited	not inhibited	not inhibited	41.4 ± 0.9%	12.9 ± 6.4%
